Assay results from patent US5389639A, “Amino alkanoic esters of rapamycin” (American Home Products Company, priority 1993, dated 1995).
Like-named read-outs stand apart in the source and are kept apart here.

How the values were obtained:
[1] = test system: cells from the thymus of normal BALB/c mice (lymphocyte proliferation); assay: Comitogen-induced thymocyte proliferation procedure (LAF); assay type: cell-based; conditions: Mus musculus
Description: (§1) Immunosuppressive activity for representative compounds of this invention was evaluated in an in vitro standard pharmacological test procedure to measure lymphocyte proliferation (LAF) and in an in vivo standard pharmacological test procedure which evaluated the survival time of a pinch skin graft.
The comitogen-induced thymocyte proliferation procedure (LAF) was used as an in vitro measure of the immunosuppressive effects of representative compounds. Briefly, cells from the thymus of normal BALB/c mice are cultured for 72 hours with PHA and IL-1 and pulsed with tritiated thymidine during the last six hours. Cells are cultured with and without various concentrations of rapamycin, cyclosporin A, or test compound. Cells are harvested and incorporated radioactivity is determined. Inhibition of lymphoproliferation is assessed as percent change in counts per minute from non-drug treated controls. For each compound evaluated, rapamycin was also evaluated for the purpose of comparison. An IC50 was obtained for each test compound as well as for rapamycin. […] The results obtained for the representative compounds of this invention are presented as IC50s.

[2] = test system: pinch skin graft from male BALB/c donors transplanted to male C3H(H-2K) recipients; assay: Survival time of pinch skin graft; assay type: in vivo, mouse; conditions: 4 mg/kg; intraperitoneally or orally; untreated usually rejected within 6-7 days
Description: as §1
Representative compounds of this invention were also evaluated in an in vivo test procedure designed to determine the survival time of pinch skin graft from male BALB/c donors transplanted to male C3 H(H-2K) recipients. The method is adapted from Billingham R. E. and Medawar P. B., J. Exp. Biol. 28:385-402, (1951). Briefly, a pinch skin graft from the donor was grafted on the dorsum of the recipient as a allograft, and an isograft was used as control in the same region. The recipients were treated with either varying concentrations of test compounds intraperitoneally or orally. Rapamycin was used as a test control. Untreated recipients serve as rejection control. The graft was monitored daily and observations were recorded until the graft became dry and formed a blackened scab. This was considered as the rejection day. The mean graft survival time (number of days ±S.D.) of the drug treatment group was compared with the control group. […] Results are expressed as the mean survival time in days. Untreated (control) pinch skin grafts are usually rejected within 6-7 days. The results shown in Table 1 are based on a dose of 4 mg/kg of test compound. A survival time of 11.67±0.63 days was obtained for rapamycin at 4 mg/kg.

Candida albicans = conditions: particularly against Candida albicans, both in vitro and in vivo; cited from earlier work
[3] = test system: experimental allergic encephalomyelitis; conditions: model for multiple sclerosis; cited from earlier work
adjuvant arthritis = conditions: model for rheumatoid arthritis; cited from earlier work
[4] = Relative oral potency: oral and i.p. ED50s in the skin graft test procedure; assay type: in vivo; conditions: mouse, ratio of oral and i.p. ED50s, p.o. 40, 10, 2.5 mg/kg, i.p. 4, 1, 0.25 mg/kg, 6 consecutive days, data obtained in cremophor, lower ratio = greater oral bioavailability
Description: The relative oral potency is determined by comparing the oral and i.p. ED50s obtained in the skin graft standard pharmacological test procedure. Briefly, the compound to be tested is evaluated at the doses of 40, 10, and 2.5 mg/kg for p.o. administration and 4, 1, and 0.25 mg/kg for i.p. administration, both administered for 6 consecutive days in the skin graft test procedure so that a dose response curve can be generated for both oral and i.p. administration. The data are subjected to a parallel line analysis and an oral and i.p. ED50 is calculated for the compound tested, and the ED50s are expressed as a ratio according to the following formula: [formula]
When comparing oral potency for different compounds that have been evaluated, the lower the ratio, the greater the oral bioavailability. The oral bioavailability serves as a measure of oral potency.

[5] = 72 hours with PHA and IL-1, tritiated thymidine during last six hours, read-out: LAF IC50

CCCOC(=O)N[C@@H](CCC(=O)O[C@@H]1CC[C@@H](C[C@@H](C)[C@@H]2CC(=O)[C@H](C)/C=C(\C)[C@@H](O)[C@@H](OC)C(=O)[C@H](C)C[C@H](C)/C=C/C=C/C=C(\C)[C@@H](OC)C[C@@H]3CC[C@@H](C)[C@@](O)(O3)C(=O)C(=O)N3CCCC[C@H]3C(=O)O2)C[C@H]1OC)C(=O)O [Example 4, Rapamycin 42-ester with (S)-4-carboxy-4-[[[propyloxy]carbonyl]amino]butanoic acid]
IC50 [1, 5]: 3.2 nM
Skin Graft mean survival time (days ± SD) [2]: 11.00 ± 1.00 days

CO[C@H]1C[C@@H]2CC[C@@H](C)[C@@](O)(O2)C(=O)C(=O)N2CCCC[C@H]2C(=O)O[C@H]([C@H](C)C[C@@H]2CC[C@@H](OC(=O)CC[C@H](N)C(=O)O)[C@H](OC)C2)CC(=O)[C@H](C)/C=C(\C)[C@@H](O)[C@@H](OC)C(=O)[C@H](C)C[C@H](C)/C=C/C=C/C=C/1C [Example 7, Rapamycin 42-ester with (S)-4-amino-4-carboxy-butanoic acid]
IC50 [1, 5]: 14 nM
Skin Graft mean survival time (days ± SD) [2]: 10.80 ± 0.40 days

CO[C@H]1C[C@@H]2CC[C@@H](C)[C@@](O)(O2)C(=O)C(=O)N2CCCC[C@H]2C(=O)O[C@H]([C@H](C)C[C@@H]2CC[C@@H](O)[C@H](OC)C2)CC(=O)[C@H](C)/C=C(\C)[C@@H](O)[C@@H](OC)C(=O)[C@H](C)C[C@H](C)/C=C/C=C/C=C/1C [rapamycin]
IC50 ([1]; read-out: IC50 of rapamycin as comparator (LAF)): 2.8 to 11.6 nM
Skin Graft mean survival time (days ± SD) [2]: 11.67 ± 0.63 days
antifungal activity (Candida albicans): antifungal activity
effect in the experimental allergic encephalomyelitis model [3]: effective
effect in the adjuvant arthritis model (adjuvant arthritis): effective

CO[C@H]1C[C@@H]2CC[C@@H](C)[C@@](O)(O2)C(=O)C(=O)N2CCCC[C@H]2C(=O)O[C@H]([C@H](C)C[C@@H]2CC[C@@H](OC(=O)CC[C@H](N)C(=O)OC(C)(C)C)[C@H](OC)C2)CC(=O)[C@H](C)/C=C(\C)[C@@H](O)[C@@H](OC)C(=O)[C@H](C)C[C@H](C)/C=C/C=C/C=C/1C [Example 11, Rapamycin 42-ester with-(S)-4-amino-5-(1,1-dimethylethoxy)-5-oxo-pentanoic acid]
IC50 [1, 5]: 1.1 nM
Skin Graft mean survival time (days ± SD) [2]: 11.50 ± 1.05 days
selectivity ratio [4]: 5.6

CO[C@H]1C[C@@H]2CC[C@@H](C)[C@@](O)(O2)C(=O)C(=O)N2CCCC[C@H]2C(=O)O[C@H]([C@H](C)C[C@@H]2CC[C@@H](OC(=O)C[C@H](N)C(=O)O)[C@H](OC)C2)CC(=O)[C@H](C)/C=C(\C)[C@@H](O)[C@@H](OC)C(=O)[C@H](C)C[C@H](C)/C=C/C=C/C=C/1C [Example 3, Rapamycin 42-ester with (S)-3-amino-3-carboxypropanoic acid]
IC50 [1, 5]: 2.5 nM
Skin Graft mean survival time (days ± SD) [2]: 10.17 ± 0.75 days

CCCOC(=O)N[C@H](CCC(=O)O[C@@H]1CC[C@@H](C[C@@H](C)[C@@H]2CC(=O)[C@H](C)/C=C(\C)[C@@H](O)[C@@H](OC)C(=O)[C@H](C)C[C@H](C)/C=C/C=C/C=C(\C)[C@@H](OC)C[C@@H]3CC[C@@H](C)[C@@](O)(O3)C(=O)C(=O)N3CCCC[C@H]3C(=O)O2)C[C@H]1OC)C(=O)O [Example 5, Rapamycin 42-ester with (R)-4-carboxy-4[[[propyloxy]carbonyl]amino]-butanoic acid]
IC50 [1, 5]: 3.9 nM
Skin Graft mean survival time (days ± SD) [2]: 10.83 ± 0.75 days

CO[C@H]1C[C@@H]2CC[C@@H](C)[C@@](O)(O2)C(=O)C(=O)N2CCCC[C@H]2C(=O)O[C@H]([C@H](C)C[C@@H]2CC[C@@H](OC(=O)C[C@H](NC(=O)OCc3ccccc3)C(=O)O)[C@H](OC)C2)CC(=O)[C@H](C)/C=C(\C)[C@@H](O)[C@@H](OC)C(=O)[C@H](C)C[C@H](C)/C=C/C=C/C=C/1C [Example 1, Rapamycin 42-ester with (S)-3-carboxy-3-[[[phenylmethoxy]carbonyl]amino]-propanoic acid]
IC50 [1, 5]: 10.7 nM
Skin Graft mean survival time (days ± SD) [2]: 10.00 ± 0.00 days

CO[C@H]1C[C@@H]2CC[C@@H](C)[C@@](O)(O2)C(=O)C(=O)N2CCCC[C@H]2C(=O)O[C@H]([C@H](C)C[C@@H]2CC[C@@H](OC(=O)CC[C@H](NC(=O)OCc3ccccc3)C(=O)O)[C@H](OC)C2)CC(=O)[C@H](C)/C=C(\C)[C@@H](O)[C@@H](OC)C(=O)[C@H](C)C[C@H](C)/C=C/C=C/C=C/1C [Example 10]
IC50 [1, 5]: 27.1 nM
Skin Graft mean survival time (days ± SD) [2]: 10.17 ± 0.41 days

CO[C@H]1C[C@@H]2CC[C@@H](C)[C@@](O)(O2)C(=O)C(=O)N2CCCC[C@H]2C(=O)O[C@H]([C@H](C)C[C@@H]2CC[C@@H](OC(=O)CC[C@@H](N)C(=O)O)[C@H](OC)C2)CC(=O)[C@H](C)/C=C(\C)[C@@H](O)[C@@H](OC)C(=O)[C@H](C)C[C@H](C)/C=C/C=C/C=C/1C [Example 9, Rapamycin 42-ester with (R)-4-amino-4-carboxybutanoic acid]
IC50 [1, 5]: 7.8 nM
Skin Graft mean survival time (days ± SD) [2]: 11.20 ± 1.00 days

CO[C@H]1C[C@@H]2CC[C@@H](C)[C@@](O)(O2)C(=O)C(=O)N2CCCC[C@H]2C(=O)O[C@H]([C@H](C)C[C@@H]2CC[C@@H](OC(=O)CC[C@H](NC(=O)OC(C)(C)C)C(=O)OC(C)(C)C)[C@H](OC)C2)CC(=O)[C@H](C)/C=C(\C)[C@@H](O)[C@@H](OC)C(=O)[C@H](C)C[C@H](C)/C=C/C=C/C=C/1C [Rapamycin 42-ester with (S)-5-tert-butoxy-4-tert-butoxycarbonylamino-5-oxo-pentanoic acid, reference compound]
selectivity ratio [4]: 188
